Measured values as given in patent publication US12708673B2, “Methods and compositions related to peptides and proteins with c-terminal elements” (Sanford Burnham Prebys Medical Discovery Institute, priority 2008, dated 2026).

Key:
PPC-1 cells = assay: Confocal immunofluorescence co-staining of phage/qdots with cellular markers in PPC-1 cells; type: cell-based, human
[1] = Tissue distribution of intravenously injected phage in mice (titration, immunofluorescence); type: in vivo, mouse; settings: intravenous
Description: (§1) FIG. 15A: Binding of RPARPAR (SEQ ID NO:2) phage to the cultured cells at 4° C. in vitro. FIG. 15B: Binding of RPARPAR (SEQ ID NO:2) phage to primary cell suspensions of mouse organs at 4° C. ex vivo. FIGS. 15C and 15D: Tissue distribution of intravenously injected RPARPAR (SEQ ID NO:2) phage after 20 minutes of circulation time. FIG. 15C: Phage was quantified by titration, tissue binding is expressed as fold G7 phage. Statistical analysis was performed by Student's t-test (c). n=3; error bars indicate s.d.; double asterisk, p<0.01, triple asterisk, p<0.001. FIG. 15D (panels d and e): Immunofluorescence localization of T7 phage (light coloring) in lung sections of mice injected intravenously with RPARPAR (SEQ ID NO:2) (d) or G7 (e) phage. Widespread immunoreactivity is present in the lungs of mice injected with RPARPAR (SEQ ID NO:2) (arrowheads in d) but not G7 (with occasional labeling seen in vessels, arrows in e). Scale bar: 50 μm.
(§2) Phage display. For in vivo phage display, mice were injected intravenously with 10^10 plaque-forming units (pfu) of T7 phage followed by perfusion of the circulatory system and determination of the bound phage in target organs by titration. For cell binding studies on cultured cells (in vitro display) and organ-derived cell suspensions (ex vivo display), the cells were incubated with 10^9 pfu of phage at 4° C., washed, lysed, and quantified by titration. Incubation at 37° C. followed by low pH wash (glycine-HCl, pH 2.5) was used to assess the amount of internalized phage.
In vivo phage homing studies in mice were carried out by injecting 10^10 pfu of T7 phage into tail vein and 10 minutes to 1 hour later, the mice were perfused with DMEM through the left ventricle of the heart. The organs of interest were collected, homogenized in 1% NP40 and the phage was quantified by titration.

wild-type NRP-1 = molecular target: T1, wild-type NRP-1 (Homo sapiens, UniProt O14786); assay: Phage binding and internalization in M21 melanoma cells transiently transfected with wild-type NRP-1; type: cell-based
T1 construct: expressed in transfected cells; host or cells: M21 melanoma cells, transient transfection with lipofectamine; pcDNA3.1(+) construct, gift of Dr. Michael Klagsbrun
T1 sequence (O14786 22-923): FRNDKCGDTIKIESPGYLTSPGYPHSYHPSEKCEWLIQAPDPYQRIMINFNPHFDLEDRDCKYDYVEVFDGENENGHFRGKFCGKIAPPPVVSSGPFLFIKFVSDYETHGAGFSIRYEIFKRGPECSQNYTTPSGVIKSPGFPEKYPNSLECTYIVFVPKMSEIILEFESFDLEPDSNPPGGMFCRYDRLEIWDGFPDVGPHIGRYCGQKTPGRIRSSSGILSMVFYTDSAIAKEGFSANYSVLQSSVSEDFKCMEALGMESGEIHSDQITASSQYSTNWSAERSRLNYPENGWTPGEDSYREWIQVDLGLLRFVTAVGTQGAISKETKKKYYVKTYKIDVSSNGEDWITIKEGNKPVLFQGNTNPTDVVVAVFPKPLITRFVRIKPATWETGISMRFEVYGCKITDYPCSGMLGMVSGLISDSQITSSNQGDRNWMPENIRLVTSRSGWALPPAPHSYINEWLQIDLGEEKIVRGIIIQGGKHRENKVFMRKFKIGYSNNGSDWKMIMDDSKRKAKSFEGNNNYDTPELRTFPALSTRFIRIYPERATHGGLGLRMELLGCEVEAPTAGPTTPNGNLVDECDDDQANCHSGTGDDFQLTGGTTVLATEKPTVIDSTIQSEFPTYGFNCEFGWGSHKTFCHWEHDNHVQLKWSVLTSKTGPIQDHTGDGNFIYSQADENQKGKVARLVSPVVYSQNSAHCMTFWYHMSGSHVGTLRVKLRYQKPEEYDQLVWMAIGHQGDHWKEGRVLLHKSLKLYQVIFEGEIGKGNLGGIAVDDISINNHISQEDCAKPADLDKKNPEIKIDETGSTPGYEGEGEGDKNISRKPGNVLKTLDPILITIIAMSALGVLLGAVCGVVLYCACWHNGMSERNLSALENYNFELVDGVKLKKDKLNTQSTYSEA
Description: FIGS. 18A-18C show the identification and validation of NRP-1 as the CendR receptor. FIG. 18A: Affinity chromatography of proteins interacting with RPARPAR (SEQ ID NO: 2) peptide. PPC-1 tumor tissue was extracted with a 200 mM glucopyranoside buffer, and the extract was incubated with RPARPAR-coated (SEQ ID NO:2) beads, followed by extensive washes, and elution with 2 mM free RPARPAR (SEQ ID NO:2) peptide. Note appearance of a 130 kDa band, identified by mass spectroscopy as NRP-1, starting in the fraction 3 of the eluate. Upper panel—a silver stained gel, lower panel—an immunoblot with anti-NRP-1 antibody. FIG. 18B: Binding of RPARPAR (SEQ ID NO:2) phage to M21 melanoma cells transiently transfected with wild-type NRP-1 (NRP-1), triple mutant NS346A-E348A-T349A NRP-1 (Mutant NRP-1), or parental pcDNA3.1plasmid (Vector), and to non-transfected M21 cells. FIG. 18C: (c, d), Confocal immunofluorescence images of NRP-1 and RPARPAR (SEQ ID NO:2) T7 phage in PPC-1 cells incubated with phage at 37° C. for 40 minutes (c) and 3 hours (d). The phage and NRP-1 co-localize extensively, but there appears to be a progressive decrease in the overlap (arrowheads in c and d) and appearance of structures positive for the phage only (arrows, d). (e) Immunostaining and confocal imaging of RPARPAR (SEQ ID NO:2) phage and NRP-1 in M21 cells transiently transfected with NRP-1. […]

4T1 = assay: RPARPAR phage binding to cultured cells at 4° C.; type: cell-based; settings: 4T1 breast cancer
Description: as §1, §2
(§3) For biopanning and phage binding studies (Hoffman, J. A. et al., 2004), cultured cells were grown to confluence and harvested with trypsin and mouse organs were dissociated using Medimachine (BD Biosciences, San Jose, CA). To measure phage binding, 10^6 cells in binding buffer (DMEM containing 1% BSA) were incubated with 10^9 pfu/ml of T7 phage for 1 hour at 4° C. The cells were washed 4 times with the binding buffer, lysed in LB bacterial growth medium containing 1% NP-40, and titrated. Phage internalization assays used the same procedure, except that the cells were incubated with the phage at 37° C., and that an acidic buffer (500 mM sodium chloride, 0.1 M glycine, 1% BSA, pH 2.5) was used instead of binding buffer in the second wash.

[2] = test system: human umbilical vein endothelial cells (HUVEC); assay: RPARPAR phage binding to cultured cells at 4° C.; type: cell-based
Description: as §1, §2, §3

[3] = test system: MDA-MB-435 human cancer cells; assay: RPARPAR phage binding to cultured cells at 4° C.; type: cell-based
Description: as §1, §2, §3

[4] = test system: murine vascular endothelial cells (F2); assay: RPARPAR phage binding to cultured cells at 4° C.; type: cell-based
Description: as §1, §2, §3

B16F10 = assay: RPARPAR phage binding to cultured cells at 4° C.; type: cell-based; settings: B16F10 melanoma cells
Description: as §1, §2, §3

MIA PaCa-2 = assay: RPARPAR phage binding to cultured cells at 4° C.; type: cell-based; settings: MIA PaCa-2 pancreatic carcinoma
Description: as §1, §2, §3

PDAC1.3 = assay: RPARPAR phage binding to cultured cells at 4° C.; type: cell-based; settings: PDAC1.3 pancreatic carcinoma
Description: as §1, §2, §3

Substance: RPARPAR [RPARPAR phage]
- Overlap of phage immunoreactivity with labeled cholera toxin subunit B (PPC-1 cells; 180 minutes): significant overlap
- Overlap of internalized phage staining with subcellular compartment markers (PPC-1 cells; LAMP-1, caveolin-1, calnexin, EEA-1, 60 minutes): did not show any clear overlap
- Penetration into tissue parenchyma (lungs) [1]: able to penetrate into tissue parenchyma
- Phage immunoreactivity in lung sections [1]: seen throughout the tissue
- Accumulation of intravenously injected phage in the heart ([1]; 20 minutes of circulation): to a lesser extent
- Accumulation of intravenously injected phage in the lungs ([1]; 20 minutes of circulation): accumulated strongly
- Phage binding and internalization by M21 cells with forced expression of NRP-1 (wild-type NRP-1): capable of binding and internalizing
- Phage binding (4T1): bound
- Phage binding [2]: binding was also seen
- Phage binding [3]: bound
- Phage binding [4]: binding was also seen
- Phage binding (B16F10): bound
- Phage binding (MIA PaCa-2): bound
- Phage binding (PDAC1.3): bound
